Measurements reported in patent publication US5061794A, “Cephalosporin derivatives, and antibacterial agents” (priority 1986, dated 1991).
Converted amounts (≈) assume the structure as drawn. Where a name gives a salt, the structure may show the parent alone. Read-outs that look alike come from different tables or passages of the source.

Key:
E. coli CSH(RE45) = assay: microbe, parasite or virus in culture; type: cell-based; settings: Escherichia coli, 16 h, read-out: Minimum Inhibitory Concentration (MIC), *E. coli CSH(RE45), lactamase-producing strain; 10^6 CFU/ml
How it was run: (§1)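 Inoculum 10^6 CFU/ml; medium Mueller Hinton agar with graded antibiotic; 37° C./16 h; endpoint MIC (μg/ml).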

E. coli CSH2 (RK1) = assay: microbe, parasite or virus in culture; type: cell-based; settings: Escherichia coli, 16 h, read-out: Minimum Inhibitory Concentration (MIC), *E. coli CSH2 (RK1), lactamase-producing strain; 10^6 CFU/ml
How it was run: as §1

E. cloacae 963 = assay: in vitro antibacterial activity, agar plate dilution method (MIC); type: cell-based; settings: Enterobacter cloacae, 963, 16 h, read-out: Minimum Inhibitory Concentration (MIC), E. cloacae 963; 10^6 CFU/ml
How it was run: as §1

E. cloacae Nek 39 = assay: as above; type: cell-based; settings: Enterobacter cloacae, NEK39, 16 h, 10^6 CFU/ml
How it was run: as §1

E. coli GN5482 = assay: as above; type: cell-based; settings: Escherichia coli
How it was run: as §1

E. coli NIHJ JC2 = assay: as above; type: cell-based; settings: Escherichia coli, NIHJJC2, 16 h, read-out: Minimum Inhibitory Concentration (MIC), E. coli NIHJ JC2, 10^6 CFU/ml, 37° C.
How it was run: as §1

K. oxytoca GN10650 = assay: as above; type: cell-based; settings: Klebsiella oxytoca, 10^6 CFU/ml
How it was run: as §1

K. pneumoniae No. 42 = assay: as above; type: cell-based; settings: Klebsiella pneumoniae, NO.42, 16 h, read-out: Minimum Inhibitory Concentration (MIC), *K. pneumoniae No. 42, lactamase-producing strain; 10^6 CFU/ml
How it was run: as §1

K. pneumoniae PCI-602 = assay: as above; type: cell-based; settings: Klebsiella pneumoniae, PCI602, 16 h, 10^6 CFU/ml
How it was run: as §1

M. morganii GN5407 = assay: as above; type: cell-based; settings: Morganella morganii, GN5407, 16 h, read-out: Minimum Inhibitory Concentration (MIC), *M. morganii GN5407, lactamase-producing strain; 10^6 CFU/ml
How it was run: as §1

P. vulgaris HX-19 = assay: as above; type: cell-based; settings: Proteus vulgaris, HX19, 16 h, P. vulgaris HX-19; 10^6 CFU/ml; read-out: Minimum Inhibitory Concentration (MIC)
How it was run: as §1

P. vulgaris No. 33 = assay: as above; type: cell-based; settings: Proteus vulgaris, NO.33, 16 h, read-out: Minimum Inhibitory Concentration (MIC), *P. vulgaris No. 33, lactamase-producing strain; 10^6 CFU/ml
How it was run: as §1

S. aureus 209P NIHJ-JC1 = assay: as above; type: cell-based; settings: Staphylococcus aureus, 16 h
How it was run: as §1

S. marcescens IAM 1184 = assay: as above; type: cell-based; settings: Serratia marcescens, IAM1184, 16 h, read-out: Minimum Inhibitory Concentration (MIC)
How it was run: as §1

S. marcescens No. 16-2 = assay: as above; type: cell-based; settings: Serratia marcescens, NO.162, 16 h; *S. marcescens No. 16-2, lactamase-producing strain; 10^6 CFU/ml; read-out: Minimum Inhibitory Concentration (MIC)
How it was run: as §1

Ps. aeruginosa AK 109 = assay: as above; type: cell-based, Pseudomonas aeruginosa; settings: Pseudomonas aeruginosa, AK109, 16 h
How it was run: as §1

Ps. aeruginosa AKR17 = assay: as above; type: cell-based, Pseudomonas aeruginosa; settings: Pseudomonas aeruginosa, read-out: Minimum Inhibitory Concentration (MIC)
How it was run: as §1

Ps. aeruginosa IF03445 = assay: as above; type: cell-based, Pseudomonas aeruginosa; settings: Pseudomonas aeruginosa, 10^6 CFU/ml
How it was run: as §1

Ps. cepacia 23 = assay: as above; type: cell-based, Pseudomonas cepacia; settings: read-out: Minimum Inhibitory Concentration (MIC)
How it was run: as §1

A. calcoaceticus No. 4 = assay: as above; type: cell-based, Acinetobacter calcoaceticus; settings: Acinetobacter calcoaceticus, NO.4, 16 h, 10^6 CFU/ml
How it was run: as §1

[1] = *E. cloacae Nek 39, lactamase-producing strain, read-out: Minimum Inhibitory Concentration (MIC)
[2] = GN5482, 16 h, read-out: Minimum Inhibitory Concentration (MIC)
[3] = 16 h, *K. oxytoca GN10650, lactamase-producing strain, read-out: Minimum Inhibitory Concentration (MIC)
[4] = K. pneumoniae PCI-602, read-out: Minimum Inhibitory Concentration (MIC)
[5] = read-out: Minimum Inhibitory Concentration (MIC)
[6] = Ps. aeruginosa AK 109, 10^6 CFU/ml, read-out: Minimum Inhibitory Concentration (MIC)
[7] = 16 h, Ps. aeruginosa AKR17, 10^6 CFU/ml
[8] = 16 h, Ps. aeruginosa IF03445, read-out: Minimum Inhibitory Concentration (MIC)
[9] = A. calcoaceticus No. 4, read-out: Minimum Inhibitory Concentration (MIC)
[10] = read-out: Minimum Inhibitory Concentration (MIC), *E. cloacae Nek 39, lactamase-producing strain
[11] = GN10650, 16 h, read-out: Minimum Inhibitory Concentration (MIC), *K. oxytoca GN10650, lactamase-producing strain
[12] = S. aureus 209P NIHJ-JC1, 10^6 CFU/ml, 37° C., 16 hours, read-out: Minimum Inhibitory Concentration (MIC)
[13] = S. marcescens IAM 1184, 10^6 CFU/ml
[14] = IF03445, 16 h, read-out: Minimum Inhibitory Concentration (MIC), Ps. aeruginosa IF03445
[15] = GN5482, 16 h, read-out: Minimum Inhibitory Concentration (MIC), *E. coli GN5482, lactamase-producing strain, 10^6 CFU/ml
[16] = read-out: Minimum Inhibitory Concentration (MIC), K. pneumoniae PCI-602

SMILES	MIC (E. coli CSH(RE45))	MIC (E. coli CSH2 (RK1))	MIC (E. cloacae 963)	MIC (E. coli GN5482; [2])	MIC (E. coli NIHJ JC2)	MIC (K. oxytoca GN10650; [3])	MIC (K. pneumoniae No. 42)	MIC (K. pneumoniae PCI-602; [4])	MIC (M. morganii GN5407)	MIC (P. vulgaris HX-19)	MIC (P. vulgaris No. 33)	MIC (S. aureus 209P NIHJ-JC1; [5])	MIC (S. marcescens IAM 1184)	MIC (S. marcescens No. 16-2)	MIC (Ps. aeruginosa AK 109; [6])	MIC (Ps. aeruginosa AKR17; [7])	MIC (Ps. aeruginosa IF03445; [8])	MIC (Ps. cepacia 23; Burkholderia cepacia, 23, 16 h)	MIC (A. calcoaceticus No. 4; [9])	MIC (E. cloacae Nek 39; [10])	also measured
CO/N=C(\C(=O)N[C@@H]1C(=O)N2C(C(=O)O)=C(CSc3nc(-c4ccc(OC)c(OC)c4)cs3)CS[C@H]12)c1csc(N)n1 [compound 13, trifluoroacetate, reference compound]	6.25 µg/mL	1.56 µg/mL	12.5 µg/mL	3.12 µg/mL	6.25 µg/mL	25 µg/mL	6.25 µg/mL	0.05 µg/mL	6.25 µg/mL	0.05 µg/mL	3.12 µg/mL	0.39 µg/mL	3.12 µg/mL	50 µg/mL	100 µg/mL	> 100 µg/mL	> 100 µg/mL	12.5 µg/mL	100 µg/mL		MIC (E. cloacae Nek 39; [1]): 25 µg/mL
CC(C)(O/N=C(\C(=O)N[C@@H]1C(=O)N2C(C(=O)O)=C(CSc3nc(C(=O)O)c(-c4ccccc4)s3)CS[C@H]12)c1csc(N)n1)C(=O)O [compound 14, reference compound]	1.56 µg/mL (≈ 2.21 µM)	1.56 µg/mL (≈ 2.21 µM)	1.56 µg/mL (≈ 2.21 µM)		1.56 µg/mL (≈ 2.21 µM)		1.56 µg/mL (≈ 2.21 µM)	0.2 µg/mL (≈ 0.284 µM)	0.2 µg/mL (≈ 0.284 µM)	< 0.006 µg/mL	0.025 µg/mL (≈ 0.0355 µM)			25 µg/mL (≈ 35.5 µM)		> 100 µg/mL		0.78 µg/mL (≈ 1.11 µM)	50 µg/mL (≈ 70.9 µM)	12.5 µg/mL (≈ 17.7 µM)	MIC (E. coli GN5482; 16 h, *E. coli GN5482, lactamase-producing strain, 10^6 CFU/ml, read-out: Minimum Inhibitory Concentration (MIC)): 3.12 µg/mL (≈ 4.43 µM); MIC (K. oxytoca GN10650; [11]): 1.56 µg/mL (≈ 2.21 µM); MIC (S. aureus 209P NIHJ-JC1; [12]): 50 µg/mL (≈ 70.9 µM); MIC (S. marcescens IAM 1184; [13]): 0.1 µg/mL (≈ 0.142 µM); MIC (Ps. aeruginosa AK 109; [5]): 12.5 µg/mL (≈ 17.7 µM); MIC (Ps. aeruginosa IF03445; [14]): 12.5 µg/mL (≈ 17.7 µM)
CO/N=C(\C(=O)N[C@@H]1C(=O)N2C(C(=O)O)=C(CSc3nc(-c4ccccc4)c(CC(=O)O)s3)CS[C@H]12)c1csc(N)n1 [compound 15, disodium 7β-[2-(2-aminothiazol-4-yl)-2-methoxyiminoacetamido]-3-(5-carboxylatemethyl-4-phenylthiazol-2-yl)thiomethyl-3-cephem-4-carboxylate, reference compound]	0.78 µg/mL	0.39 µg/mL	0.39 µg/mL	3.12 µg/mL	0.78 µg/mL	25 µg/mL	0.78 µg/mL	0.2 µg/mL	0.39 µg/mL	< 0.006 µg/mL	0.2 µg/mL	3.12 µg/mL	0.78 µg/mL	50 µg/mL	100 µg/mL	> 100 µg/mL	100 µg/mL	6.25 µg/mL	100 µg/mL	12.5 µg/mL	
CC(C)(O/N=C(\C(=O)N[C@@H]1C(=O)N2C(C(=O)O)=C(CSc3nc(-c4ccccc4)c(CC(=O)O)s3)CS[C@H]12)c1csc(N)n1)C(=O)O [compound 16, trisodium 7β-[2-(2-aminothiazol-4-yl)-2-(1-carboxylate-1-methylethoxyimino)acetamido]-3-(5-carboxylatemethyl-4-phenylthiazol-2-yl)thio-methyl-3-cephem-4-carboxylate, reference compound]	3.12 µg/mL	6.25 µg/mL	6.25 µg/mL		6.25 µg/mL		3.12 µg/mL		1.56 µg/mL	< 0.006 µg/mL	0.2 µg/mL		1.56 µg/mL	50 µg/mL	50 µg/mL	> 100 µg/mL	50 µg/mL	6.25 µg/mL	> 100 µg/mL		MIC (E. cloacae Nek 39; [1]): 25 µg/mL; MIC (E. coli GN5482; [15]): 6.25 µg/mL; MIC (K. oxytoca GN10650; [11]): 3.12 µg/mL; MIC (K. pneumoniae PCI-602; [16]): 1.56 µg/mL; MIC (S. aureus 209P NIHJ-JC1; [12]): 50 µg/mL
Nc1nc(/C(=N/OC(C(=O)O)c2ccc(O)c(O)c2)C(=O)N[C@@H]2C(=O)N3C(C(=O)O)=C(CSc4nnc(-c5ccc(O)c(O)c5)o4)CS[C@H]23)cs1 (stereo partly drawn) [compound 16]	3.12 µg/mL (≈ 4.12 µM)	0.025 µg/mL (≈ 0.033 µM)	0.39 µg/mL (≈ 0.515 µM)		0.2 µg/mL (≈ 0.264 µM)		0.2 µg/mL (≈ 0.264 µM)	< 0.006 µg/mL	0.2 µg/mL (≈ 0.264 µM)	0.05 µg/mL (≈ 0.066 µM)	0.78 µg/mL (≈ 1.03 µM)			25 µg/mL (≈ 33 µM)						0.78 µg/mL (≈ 1.03 µM)	MIC (E. coli GN5482; [15]): 0.78 µg/mL (≈ 1.03 µM); MIC (K. oxytoca GN10650; [11]): 0.1 µg/mL (≈ 0.132 µM); MIC (S. aureus 209P NIHJ-JC1; read-out: Minimum Inhibitory Concentration (MIC), S. aureus 209P NIHJ-JC1, 10^6 CFU/ml, 37° C., 16 hours): 1.56 µg/mL (≈ 2.06 µM); MIC (S. marcescens IAM 1184; [13]): 0.1 µg/mL (≈ 0.132 µM); MIC (Ps. aeruginosa AK 109; read-out: Minimum Inhibitory Concentration (MIC), Ps. aeruginosa AK 109, 10^6 CFU/ml): 0.78 µg/mL (≈ 1.03 µM); MIC (Ps. aeruginosa AKR17; AKR17, 16 h): 3.12 µg/mL (≈ 4.12 µM); MIC (Ps. aeruginosa IF03445; [14]): 6.25 µg/mL (≈ 8.25 µM); MIC (Ps. cepacia 23; Burkholderia cepacia, 16 h, Ps. cepacia 23, 10^6 CFU/ml): < 0.006 µg/mL; MIC (A. calcoaceticus No. 4; read-out: Minimum Inhibitory Concentration (MIC), A. calcoaceticus No. 4): 0.1 µg/mL (≈ 0.132 µM)
CO/N=C(\C(=O)N[C@@H]1C(=O)N2C(C(=O)O)=C(CSc3nc(-c4ccc(O)cc4)c(CC(=O)O)s3)CS[C@H]12)c1csc(N)n1 [compound 17, disodium 7β-[2-(2-aminothiazol-4-yl)-2-methoxyminoacetamido]-3-[5-carboxylatemethyl-4-(4-hydroxyphenyl)thiazol-2-yl]thiomethyl-3-cephem-4-carboxylate, reference compound]	0.78 µg/mL	0.39 µg/mL	0.39 µg/mL	3.12 µg/mL	0.39 µg/mL	25 µg/mL	0.78 µg/mL		0.39 µg/mL	< 0.006 µg/mL	0.1 µg/mL	3.12 µg/mL	0.39 µg/mL	100 µg/mL	50 µg/mL	> 100 µg/mL	50 µg/mL	6.25 µg/mL	100 µg/mL	12.5 µg/mL	MIC (K. pneumoniae PCI-602; [16]): 0.1 µg/mL
